Laboratory results from patent US20240060139A1, “TREATMENT RESPONSE SIGNATURES” (Caris MPI, Inc., priority 2020, published 2024).

Test system: ovarian cancers
Assay: Kaplan Meier overall survival on platinum therapy against gene copy number at 5q1x and 3q2x (control analysis)
Assay type: in vivo
Details: MAP3K1, IL6ST, PIK3R1 copy number; FIGS. 3F-H
Text: We then asked whether loss of the PARP15 and PARP8 would also correlate with response or lack of response to PARPi therapy. For this analysis we looked at DNA copy number determined using next-generation sequencing of a panel of 592 genes. See Example 1. […] Without being bound by theory, loss at a one gene is highly correlated with loss of neighboring genes. As a control, we repeated the analysis shown in FIGS. 3C-E but used response to platinum compounds instead of PARPi, specifically carboplatin. […] As a control, we repeated the analysis shown in FIGS. 3I-K but used response to platinum compounds instead of PARPi.

N.N.O=C([O-])C1(C(=O)[O-])CCC1.[Pt+2] [carboplatin]
response to platinum therapy (overall survival) by gene copy number at 5q1x: loss of copy number at 5q1x was correlated of positive benefit of platinum therapy
